In ChEMBL document CHEMBL3137667, “[Drug-induced liver injury; fourteenth updated edition of the bibliographic database of liver injuries and related drugs]” (Gastroenterol Clin Biol, 2004):

Legend:
[1] = human
[2] = human; remark: listed apart in the source
[3] = human, serum
[4] = Highest frequency of acute liver toxicity observed during clinical trials, expressed as a percentage. [column '% AIGUE' in source]; conditions: human
[5] = human; remark: listed apart in the source
[6] = Comments (NB not yet translated). [column 'COMMENTAIRES' in source]; conditions: human
[7] = human; remark: listed apart in the source
[8] = human; remark: listed apart in the source
[9] = Highest frequency of moderate liver toxicity observed during clinical trials, expressed as a percentage. [column '% BIOL' in source]; conditions: human
[10] = Times to onset, minimal and maximal, observed in the indexed observations. [column 'DELAI' in source]; conditions: human
[11] = human; remark: listed apart in the source
[12] = Proposed mechanism(s) of liver damage. [column 'MEC' in source]; conditions: human
[13] = human, serum, 4383 h
[14] = Presence of at least one case with successful reintroduction. [column 'REINT' in source]; conditions: human
[15] = human; remark: listed apart in the source
[16] = human; remark: listed apart in the source
[17] = human, serum; remark: listed apart in the source
[18] = human; remark: listed apart in the source
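Throughout, for Hepatotoxicity (association with vascular disease): count of indexed literature references reporting vascular liver injury in humans, e.g. peliosis hepatitis, hepatic veno-occlusive disease or Budd-Chiari syndrome.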
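Throughout, for Hepatotoxicity (benign tumour): value is a count of indexed literature references citing a benign tumour confirmed by histopathology.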
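Throughout, for Hepatotoxicity (choleostasis): human cholestatic liver injury, shown by histopathology or by peak ALT or AST elevation over alkaline phosphatase ratio below 2, value counts indexed literature reports.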
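Throughout, for Hepatotoxicity (chronic liver disease): chronic liver injury confirmed by histopathology or persistently raised serum aminotransferase activity beyond 6 months, value given as the count of indexed literature references.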
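Throughout, for Hepatotoxicity (cirrhosis): value is a count of indexed literature references reporting cirrhosis confirmed by histopathology.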
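Throughout, for Hepatotoxicity (cytolytic): human cytolytic liver injury, shown by histopathology or by a ratio above 5 of peak ALT or AST elevation to alkaline phosphatase elevation, value counts indexed references.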
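Throughout, for Hepatotoxicity (granulomatous hepatitis): value is a count of indexed literature references reporting granulomatous liver disease confirmed by histopathology.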
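Throughout, for Hepatotoxicity (malignant tumour): malignant tumour confirmed by histopathology, value gives the count of indexed literature references reporting it.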
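Throughout, for Hepatotoxicity (severe hepatitis): human clinical data: severe hepatitis, meaning potentially life-threatening liver failure or clinically observed cases, the value counts how many indexed literature references report it.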
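Throughout, for Hepatotoxicity (steatosis): steatosis confirmed by histopathology, value is the count of indexed references.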

| SMILES | Hepatotoxicity (benign tumour) [1] | Hepatotoxicity (cytolytic) [2] | Hepatotoxicity (moderate) [3] | Hepatotoxicity (acute) ([4]; Liver) [%] | Hepatotoxicity (severe hepatitis) ([5]; Liver) | Hepatotoxicity (comment) [6] | Hepatotoxicity (cirrhosis) [7] | Hepatotoxicity (association with vascular disease) [8] | Hepatotoxicity (moderate) ([9]; Liver) [%] | Hepatotoxicity (time to onset) [10] | Hepatotoxicity (steatosis) [11] | Hepatotoxicity (mechanism) [12] | Hepatotoxicity (chronic liver disease) [13] | Hepatotoxicity (successful reintroduction) [14] | Hepatotoxicity (granulomatous hepatitis) [15] | Hepatotoxicity (malignant tumour) [16] | Hepatotoxicity (acute) [17] | Hepatotoxicity (choleostasis) [18] | Hepatotoxicity (acute) [4] [%] | Hepatotoxicity (severe hepatitis) [5] | further results |
| --- | --- | --- | --- | --- | --- | --- | --- | --- | --- | --- | --- | --- | --- | --- | --- | --- | --- | --- | --- | --- | --- |
| CC(C)OC(=O)C(C)(C)Oc1ccc(C(=O)c2ccc(Cl)cc2)cc1 [FENOFIBRATE] | 0 | 11 | 27 | 2.7 | 0 | RC/CLOFIBRATE CHOLESTASE_PROLONGEE DUCTOPENIE AC_ANTI-ML/-N | 1 | 0 | 52.9 | 1 day - 3 years | 0 | Allergic | 4 | yes | 0 | 0 | 13 | 5 | – | – | – |
| O=C(OCC(O)CO)c1ccccc1Nc1ccnc2cc(Cl)ccc12 (configuration not stated) [GLAFENINE] | 0 | – | 2 | 0 | 7 | LITHIASE | 5 | 0 | 0 | 2 days - 8 months | 0 | – | 5 | yes | – | 0 | 14 | – | – | – | Hepatotoxicity (cytolytic) ([2]; Liver): 12; Hepatotoxicity (mechanism) ([12]; Liver): Allergic; Hepatotoxicity (granulomatous hepatitis) ([15]; Liver): 0; Hepatotoxicity (choleostasis) ([18]; Liver): 2 |
| COc1ccc(Cl)cc1C(=O)NCCc1ccc(S(=O)(=O)NC(=O)NC2CCCCC2)cc1 [GLYBURIDE] | 0 | 2 | 7 | – | – | CHOLANGITE DUCTOPENIE | 1 | 0 | – | 2 weeks - 7 years | 0 | Allergic, Dose-dependant | 0 | yes | 2 | 0 | 14 | 10 | 0 | 0 | Hepatotoxicity (moderate) [9]: 6.7% |
| NNc1nncc2ccccc12 [HYDRALAZINE] | 0 | – | 4 | 0 | 2 | CHOLANGITE AC_ANTI-N | 0 | 0 | 0 | 2 days - 3 years | 0 | – | 3 | yes | – | 0 | 9 | – | – | – | Hepatotoxicity (cytolytic) ([2]; Liver): 6; Hepatotoxicity (mechanism) ([12]; Liver): Allergic, Toxic; Hepatotoxicity (granulomatous hepatitis) ([15]; Liver): 6; Hepatotoxicity (choleostasis) ([18]; Liver): 3 |
| CC(C)Cc1ccc(C(C)C(=O)O)cc1 (configuration not stated) [IBUPROFEN] | 0 | 14 | 10 | 0 | 6 | RC/DICLOFENAC CHOLESTASE_PROLONGEE DUCTOPENIE REACTIVATION_HSV6 | 1 | 0 | 16 | 1 day - 4 months | 1 | Allergic, Overdose | 1 | yes | 0 | 0 | 20 | 6 | – | – | – |
| Sc1ncnc2nc[nH]c12 [MERCAPTOPURINE ANHYDROUS] | 0 | – | 13 | 4.9 | 5 | I/DOXORUBICINE CHOLANGITE | 0 | 2 | 53 | 2 days - 2 years | 0 | – | 0 | yes | – | 3 | 30 | – | – | – | Hepatotoxicity (cytolytic) ([2]; Liver): 15; Hepatotoxicity (mechanism) ([12]; Liver): Dose-dependant; Hepatotoxicity (granulomatous hepatitis) ([15]; Liver): 0; Hepatotoxicity (choleostasis) ([18]; Liver): 15 |
| Nc1ccc(O)c(C(=O)O)c1 [MESALAMINE] | 0 | 5 | 14 | – | – | CHOLANGITE RC/SULFASALAZINE AC_ANTI-N/-ML | 0 | 0 | – | 1 day - 1 year | 0 | Allergic | 1 | yes | 1 | 0 | 12 | 3 | 1 | 1 | Hepatotoxicity (moderate) [9]: 21% |
| C[C@](N)(Cc1ccc(O)c(O)c1)C(=O)O [METHYLDOPA] | 0 | 16 | 10 | – | – | AC_ANTI-N/-ML/-MF RC/ALLOPURINOL | 7 | 0 | – | 3 days - 12 years | 3 | Allergic, Toxic | 27 | yes | 8 | 1 | 24 | 10 | 1.3 | 13 | Hepatotoxicity (moderate) [9]: 35% |
| CN1CCN2c3ccccc3Cc3ccccc3C2C1 (configuration not stated) [MIANSERIN] | 0 | 3 | 3 | – | – | RC/NOMIFENSINE | 0 | 0 | – | 1 day - 1.8 years | 0 | Dose-dependant, Reactive metabolite | 0 | yes | 0 | 0 | 5 | 5 | 0 | 0 | Hepatotoxicity (moderate) [9]: 26% |
